Measurements published in patent US7915293B2, “Ubiquitin ligase inhibitors” (Rigel Pharmaceuticals, Inc., priority 2003, dated 2011).

What was measured:
Parameters in all cases: key: “+” indicates that the compound exibits inhibitory activity; “−” indicates that low or no inhibitory activity was observed
[1] = system: HeLa cells; test: Cell proliferation assay, photographic image analysis of proliferation, apoptosis and death (PAD assay), HeLa; format: cell-based; settings: 6 concentrations tested
Procedure: A549 (ATCC# CCL-185), HeLa (ATCC# CCL-2), HCT116 (ATCC# CCL-247), and H1299 (ATCC# CRL-5803) cells were maintained in T175 flasks following the ATCC recommended media and handling procedures. Flasks reaching approximately 70% confluency were trypsinized and resuspended in RPMI media (Cell-Gro catalog number 10-040-CM) modified to contain 5% FBS, 100 ug/mlPen/Strep (Cell-Gro catalog number 30-002-CL), and 0.3 mg/ml L-Glutamine (Cell-Gro catalog number 25-003-CL). A 20,000 cells/ml solution was made for plating. Cells were plated in black Packard 96 well plates by placing 100 μl per well (2,000 cells per well).
Compounds and additional media were added 24 hours after cell plating. A compound master plate was created with concentrations 500 times greater than the final concentration added to the cells. All compound testing was done in duplicate using 6.3 fold dilutions starting with 10 mM. All outside wells (and 4 internal wells) were DMSO controls. Taxol and at least one additional control were run on all plates. Three microliters of the compound master plate were added to deep well blocks containing 750 μl of RPMI media. One hundred microliters were transferred from the compound/media deep well blocks to the plated cells resulting in a 500 fold dilution of the compounds. Cells were grown at 37° C., 5% CO2 for 48 hours.
Cells to be analyzed by photography were fixed and stained. One hundred microliters of media were removed and 100 μl of 9.3% […] was added to each well. Plates were left on the benchtop for 45 minutes. A staining solution containing 1.55 μl of 1 mg/ml DAPI added to 18.75 ml PBS was warmed for 15 minutes at 37° C. The cells were aspirated prior to washing with 100 μl of PBS. Seventy microliters of PBS were aspirated and 170 μl of the DAPI solution were added to each well of fixed cells. Plates were left at room temperature for one hour then aspirated and washed twice with 100 μl of PBS. The stained cells were left at 4° C. for a minimum of 16 hours before photographic analysis with Array Scan II (Cellomics). Analysis of the photographic images to determine numbers of live cells (proliferation), apoptotic cells and dead cells, were according to the methods described in U.S. Provisional Patent Application Ser. No. 60/406,714, which incorporated herein in its entirety.

[2] = system: A549 cells; test: Cell proliferation assay, photographic image analysis of proliferation, apoptosis and death (PAD assay), A549; format: cell-based; settings: 6 concentrations tested
Outline: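 Cells grown in RPMI with 5% FBS (2,000/well) and dosed 24 h after plating with 6.3-fold dilutions in duplicate (master plate 500× final, top 10 mM stock). After 48 h at 37 °C, cells formamide-fixed and DAPI-stained. Image analysis counted live, apoptotic and dead cells.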

[3] = biological target: E3 (His-APC11/APC2-"APC") (Homo sapiens, UniProt Q9NYG5+Q9UJX6); test: Plate-based E3 ligase assay (APC FLAG), auto-ubiquitination; format: biochemical; settings: 8 concentrations tested
Outline: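 His-APC11/APC2 auto-ubiquitination was run in casein-blocked nickel plates for 1 h at room temperature, with E1 at 5 ng/well, UbcH5c at 20 ng/well and APC at 100 ng/well. Buffer was 62.5 mM Tris pH 7.6, 3 mM MgCl2, 1 mM DTT, 2.5 mM ATP and Flag-ubiquitin at 100 ng/well. Detection used anti-Flag/HRP chemiluminescence, and IC50 was typically from 6 or 8 concentrations versus a DMSO control.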

Chain of E3 (His-APC11/APC2-"APC") (Q9NYG5 whole entry): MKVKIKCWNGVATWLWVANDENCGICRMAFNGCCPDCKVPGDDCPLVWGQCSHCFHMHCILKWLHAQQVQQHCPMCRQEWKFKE
Chain of E3 (His-APC11/APC2-"APC") (Q9UJX6 whole entry): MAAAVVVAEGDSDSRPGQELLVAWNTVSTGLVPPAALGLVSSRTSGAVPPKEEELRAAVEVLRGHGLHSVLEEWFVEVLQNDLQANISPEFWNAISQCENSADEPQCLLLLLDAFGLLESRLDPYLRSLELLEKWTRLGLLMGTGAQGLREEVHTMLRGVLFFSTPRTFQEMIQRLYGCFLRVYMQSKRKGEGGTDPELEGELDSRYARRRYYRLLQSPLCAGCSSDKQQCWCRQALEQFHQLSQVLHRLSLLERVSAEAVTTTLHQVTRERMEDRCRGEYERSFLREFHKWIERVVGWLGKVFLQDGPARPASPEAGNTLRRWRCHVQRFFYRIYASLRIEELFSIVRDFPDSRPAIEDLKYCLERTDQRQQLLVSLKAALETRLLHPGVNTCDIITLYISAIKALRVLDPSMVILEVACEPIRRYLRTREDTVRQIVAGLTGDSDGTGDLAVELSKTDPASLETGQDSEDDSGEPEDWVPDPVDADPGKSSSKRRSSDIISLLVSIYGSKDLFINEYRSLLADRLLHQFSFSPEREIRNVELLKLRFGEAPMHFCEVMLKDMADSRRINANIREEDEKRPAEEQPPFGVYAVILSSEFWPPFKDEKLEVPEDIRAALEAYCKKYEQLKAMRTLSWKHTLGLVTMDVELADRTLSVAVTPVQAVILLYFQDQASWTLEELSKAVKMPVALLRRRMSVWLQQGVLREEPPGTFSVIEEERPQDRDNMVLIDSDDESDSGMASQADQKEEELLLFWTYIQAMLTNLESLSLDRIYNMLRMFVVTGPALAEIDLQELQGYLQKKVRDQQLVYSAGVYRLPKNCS

SMILES | APC Flag 8 pt [3] | PAD Assay, HELA 6 pt [1] | PAD Assay, A549 6 pt [2]
O=S(=O)(Nc1ccc(Oc2ncc(C(F)(F)F)cc2Cl)cc1)c1ccccc1C(F)(F)F [Example 296, N-(4-(3-chloro-5-(trifluoromethyl)pyridin-2-yloxy)phenyl)-2-(trifluoromethyl)benzenesulfonamide] | − | − | +
O=[N+]([O-])c1ccc(Oc2c(Cl)cc(S(=O)(=O)Nc3ccc(Oc4ccc(F)cc4)c(Br)c3)cc2Cl)c(Cl)c1 [Example 291, N-[3-bRomo-4-(4-fluorophenoxy)phenyl]-3,5-dichloro-4-(2-chloro-4-nitrophenoxy) benzenesulfonamide] | + | + | +
Cc1ccc(Cl)cc1NS(=O)(=O)c1cc(Cl)c(Oc2ccc([N+](=O)[O-])cc2Cl)c(Cl)c1 [Example 252, 3,5-dichloro-N-(5-chloro-2-methylphenyl)-4-(2-chloro-4-nitrophenoxy)benzene-sulfonamide] | + | + | +
Cc1c(Cl)cccc1S(=O)(=O)Nc1ccc(Oc2ccc(F)cc2)c(Br)c1 [Example 281, N-[3-bRomo-4-(4-fluorophenoxy)phenyl]-3-chloro-2-methylbenzenesulfonamide] | + | + | +
O=[N+]([O-])c1ccc(Oc2c(Cl)cc(S(=O)(=O)Nc3cc(F)c(F)cc3F)cc2Cl)c(Cl)c1 [Example 199, 3,5-dichloro-4-(2-chloro-4-nitrophenoxy)-N-(2,4,5-trifluorophenyl)benzenesulfonamide] | + | + | +
O=[N+]([O-])c1ccc(Oc2c(Cl)cc(S(=O)(=O)Nc3ccc4cn[nH]c4c3)cc2Cl)c(Cl)c1 [Example 171, 3,5-dichloro-4-(2-chloro-4-nitrophenoxy)-N-1H-indazol-6-ylbenzenesulfonamide] | − | − | +
O=[N+]([O-])c1ccc(Oc2ccc(S(=O)(=O)Nc3ccc(F)cc3C(F)(F)F)cc2Cl)c(C(F)(F)F)c1 [Example 266, 3-chloro-N-[4-fluoro-2-(trifluoromethyl)phenyl]-4-[4-nitro-2-(trifluoromethyl)phenoxy]benzenesulfonamide] | + | + | +
Cc1c(F)cccc1NS(=O)(=O)c1cc(Cl)c(Oc2ccc([N+](=O)[O-])cc2Cl)c(Cl)c1 [Example 234, 3,5-dichloro-4-(2-chloro-4-nitrophenoxy)-N-(3-fluoro-2-methylphenyl)benzene-sulfonamide] | + | + | +
O=C(Nc1cccc(Cl)c1)Nc1ccc(Oc2ccc(F)cc2)c(Br)c1 [Compound 304] | + | + | +
O=[N+]([O-])c1ccc(Oc2c(Cl)cc(S(=O)(=O)Nc3c(F)cccc3F)cc2Cl)c(Cl)c1 [Example 238, 3,5-dichloro-4-(2-chloro-4-nitrophenoxy)-N-(2,6-difluorophenyl)benzenesulfonamide] | + | + | +

Second part, led by results:

APC Flag 8 pt [3] | SMILES | PAD Assay, HELA 6 pt [1] | PAD Assay, A549 6 pt [2]
+ | COc1ccc(S(=O)(=O)Nc2ccc(Oc3cc(C(F)(F)F)ccc3Cl)cc2F)cc1 [Compound 287, N-{4-[2-chloro-5-(trifluoromethyl)phenoxy]-2-fluorophenyl}-4-methoxybenzenesulfonamide] | + | +
+ | Cc1cc2cc(NS(=O)(=O)c3cc(Cl)c(Oc4ccc([N+](=O)[O-])cc4Cl)c(Cl)c3)ccc2[nH]1 [Compound 244, 3,5-dichloro-4-(2-chloro-4-nitrophenoxy)-N-(2-methyl-1H-indol-5-yl)benzene sulfonamide] | + | +
+ | O=S(=O)(Nc1cccc2cnccc12)c1cc(Cl)c(Oc2ccc(Cl)cc2Cl)c(Cl)c1 [Example 246, 3,5-dichloro-4-(2,4-dichlorophenoxy)-N-isoquinolin-5-ylbenzenesulfonamide] | + | +
+ | O=[N+]([O-])c1ccc(Oc2c(Cl)cc(S(=O)(=O)Nc3cccc4c3OC(F)(F)C(F)(F)O4)cc2Cl)c(Cl)c1 [Example 192, 3,5-dichloro-4-(2-chloro-4-nitrophenoxy)-N-(2,2,3,3-tetrafluoro-2,3-dihydro-1,4-benzodioxin-5-yl)benzenesulfonamide] | − | −
+ | O=[N+]([O-])c1ccc(Oc2ccc(NS(=O)(=O)c3cccc(Cl)c3)cc2)cc1 [Example 275, 3-chloro-N-[4-(4-nitrophenoxy)phenyl] benzenesulfonamide] | − | +
+ | O=S(=O)(Nc1c(F)cccc1F)c1ccc(Oc2ncc(C(F)(F)F)cc2Cl)cc1 [Compound 259, 4-{[3-chloro-5-(trifluoromethy)pyridin-2-yl]oxy}-N-(2,6-difluorophenyl)benzene sulfonamide] | − | −
+ | O=S(=O)(Nc1ccc(Oc2ccc(F)cc2)c(Br)c1)c1cc(Cl)ccc1Cl [Example 278, N-[3-bRomo-4-(4-fluorophenoxy)phenyl]-2,5-dichlorobenzenesulfonamide] | + | +
+ | O=[N+]([O-])c1ccc(Oc2ccc(S(=O)(=O)Nc3c(F)cccc3F)cc2Cl)c(C(F)(F)F)c1 [Example 268, 3-chloro-N-(2,6-difluorophenyl)-4-[4-nitro-2-(trifluoromethyl)phenoxy]benzene-sulfonamide] | + | +
+ | Cc1ccc(F)cc1NS(=O)(=O)c1cc(Cl)c(Oc2ccc([N+](=O)[O-])cc2Cl)c(Cl)c1 [Compound 242, 3,5-dichloro-4-(2-chloro-4-nitrophenoxy)-N-(5-fluoro-2-methylphenyl)benzene sulfonamide] | + | +
+ | O=S(=O)(Nc1cc(Cl)ccc1C(F)(F)F)c1ccc(Oc2ncc(C(F)(F)F)cc2Cl)cc1 [Compound 272, N-[5-chloro-2-(trifluoromethyl)phenyl]-4-{[3-chloro-5-(trifluoromethyl)pyridin-2-yl]oxy}benzenesulfonamide] | + | +
+ | O=S(=O)(Nc1ccc(Oc2ccc(F)cc2)c(Br)c1)c1cccc(Cl)c1 [Compound 282, N-[3-bromo-4-(4-fluorophenoxy)phenyl]-3-chlorobenzenesulfonamide] | − | +
+ | O=[N+]([O-])c1ccc(F)c(NS(=O)(=O)c2ccc(Oc3ncc(C(F)(F)F)cc3Cl)cc2)c1 [Example 258, 4-{[3-chloro-5-(trifluoromethyl)pyridin-2-yl]oxy}-N-(2-fluoro-5-nitrophenyl)benzene-sulfonamide] | + | +
